Target: LRRK2 G2019S enzyme (Homo sapiens (Human), UniProt Q5S007, G2019S)
Test: LRRK2 G2019S TR-FRET biochemical kinase assay (LRRKtide substrate)
Conditions: Table A-2; 5 nM LRRK2, 134 μM ATP, 60 minute reaction, 23° C.
Protocol: LRRK2 G2019S enzyme, Substrate (LRRKtide), ATP, TR-FRET dilution buffer, pLRRKtide antibody, 384-well assay plate, and DMSO.
50 mM Tris pH 7.5, 10 mM MgCl2, 1 mM EGTA, 0.01% Brij-35, 2 mM DTT, 5 nM LRRK2, 134 μM ATP, 60 minute reaction time, 23° C. reaction temperature, and 10 μL total reaction volume.
1×TR-FRET dilution buffer, 10 mM EDTA, 2 nM antibody, 23° C. reaction temperature, and 10 μL total reaction volume.
Compound solutions were prepared by initially diluting to 1 mM with DMSO. 35 μL of reference compound solution, 35 μL of test compound solution, and 35 μL HPE were successively added to the source plate (384-well assay plate, Labcyte). The plates were centrifuged at 2500 rpm for 1 minute and sealed in foil. POD was used to perform a 3.162 fold serial dilution and 100 nL of reference compound solution, test compound solution, HPE and ZPE were transferred to assay plates. The assay plate was centrifuged at 2500 rpm for 1 minute, and sealed with foil.
To perform the enzyme reaction, 5 μL of LRRKtide substrate and kinase mixture in assay buffer was added to all wells of the assay plate. The plate was centrifuged to concentrate the mixture at the bottom of the wells. The assay plate was incubated at 23° C. for 20 minutes. Following incubation, 5 μL of 2×ATP in assay buffer was added to each well, and plates were centrifuged to concentrate the mixture at the bottom of the wells. The plate was incubated at 23° C. for 60 minutes.
To perform the detection of the reaction, EDTA completely mixed in TR-FRET dilution buffer was added to antibody reagent. 10 μL of detection reagent was added to all wells of each well of the assay-plate and the plate was centrifuged to concentrate the mixture at the bottom of the wells. The plate was then incubated at 23° C. for 60 minutes. Plates were read on Perkin Elmer Envision 2104 instrument in TR-FRET mode using a 340 nm excitation filter, 520 nm fluorescence emission filter, and 490 or 495 nm terbium emission filter.
B-2, C2, and D-4 respectively.

LRRK2 G2019S enzyme, sequence (Q5S007 whole entry G2019S): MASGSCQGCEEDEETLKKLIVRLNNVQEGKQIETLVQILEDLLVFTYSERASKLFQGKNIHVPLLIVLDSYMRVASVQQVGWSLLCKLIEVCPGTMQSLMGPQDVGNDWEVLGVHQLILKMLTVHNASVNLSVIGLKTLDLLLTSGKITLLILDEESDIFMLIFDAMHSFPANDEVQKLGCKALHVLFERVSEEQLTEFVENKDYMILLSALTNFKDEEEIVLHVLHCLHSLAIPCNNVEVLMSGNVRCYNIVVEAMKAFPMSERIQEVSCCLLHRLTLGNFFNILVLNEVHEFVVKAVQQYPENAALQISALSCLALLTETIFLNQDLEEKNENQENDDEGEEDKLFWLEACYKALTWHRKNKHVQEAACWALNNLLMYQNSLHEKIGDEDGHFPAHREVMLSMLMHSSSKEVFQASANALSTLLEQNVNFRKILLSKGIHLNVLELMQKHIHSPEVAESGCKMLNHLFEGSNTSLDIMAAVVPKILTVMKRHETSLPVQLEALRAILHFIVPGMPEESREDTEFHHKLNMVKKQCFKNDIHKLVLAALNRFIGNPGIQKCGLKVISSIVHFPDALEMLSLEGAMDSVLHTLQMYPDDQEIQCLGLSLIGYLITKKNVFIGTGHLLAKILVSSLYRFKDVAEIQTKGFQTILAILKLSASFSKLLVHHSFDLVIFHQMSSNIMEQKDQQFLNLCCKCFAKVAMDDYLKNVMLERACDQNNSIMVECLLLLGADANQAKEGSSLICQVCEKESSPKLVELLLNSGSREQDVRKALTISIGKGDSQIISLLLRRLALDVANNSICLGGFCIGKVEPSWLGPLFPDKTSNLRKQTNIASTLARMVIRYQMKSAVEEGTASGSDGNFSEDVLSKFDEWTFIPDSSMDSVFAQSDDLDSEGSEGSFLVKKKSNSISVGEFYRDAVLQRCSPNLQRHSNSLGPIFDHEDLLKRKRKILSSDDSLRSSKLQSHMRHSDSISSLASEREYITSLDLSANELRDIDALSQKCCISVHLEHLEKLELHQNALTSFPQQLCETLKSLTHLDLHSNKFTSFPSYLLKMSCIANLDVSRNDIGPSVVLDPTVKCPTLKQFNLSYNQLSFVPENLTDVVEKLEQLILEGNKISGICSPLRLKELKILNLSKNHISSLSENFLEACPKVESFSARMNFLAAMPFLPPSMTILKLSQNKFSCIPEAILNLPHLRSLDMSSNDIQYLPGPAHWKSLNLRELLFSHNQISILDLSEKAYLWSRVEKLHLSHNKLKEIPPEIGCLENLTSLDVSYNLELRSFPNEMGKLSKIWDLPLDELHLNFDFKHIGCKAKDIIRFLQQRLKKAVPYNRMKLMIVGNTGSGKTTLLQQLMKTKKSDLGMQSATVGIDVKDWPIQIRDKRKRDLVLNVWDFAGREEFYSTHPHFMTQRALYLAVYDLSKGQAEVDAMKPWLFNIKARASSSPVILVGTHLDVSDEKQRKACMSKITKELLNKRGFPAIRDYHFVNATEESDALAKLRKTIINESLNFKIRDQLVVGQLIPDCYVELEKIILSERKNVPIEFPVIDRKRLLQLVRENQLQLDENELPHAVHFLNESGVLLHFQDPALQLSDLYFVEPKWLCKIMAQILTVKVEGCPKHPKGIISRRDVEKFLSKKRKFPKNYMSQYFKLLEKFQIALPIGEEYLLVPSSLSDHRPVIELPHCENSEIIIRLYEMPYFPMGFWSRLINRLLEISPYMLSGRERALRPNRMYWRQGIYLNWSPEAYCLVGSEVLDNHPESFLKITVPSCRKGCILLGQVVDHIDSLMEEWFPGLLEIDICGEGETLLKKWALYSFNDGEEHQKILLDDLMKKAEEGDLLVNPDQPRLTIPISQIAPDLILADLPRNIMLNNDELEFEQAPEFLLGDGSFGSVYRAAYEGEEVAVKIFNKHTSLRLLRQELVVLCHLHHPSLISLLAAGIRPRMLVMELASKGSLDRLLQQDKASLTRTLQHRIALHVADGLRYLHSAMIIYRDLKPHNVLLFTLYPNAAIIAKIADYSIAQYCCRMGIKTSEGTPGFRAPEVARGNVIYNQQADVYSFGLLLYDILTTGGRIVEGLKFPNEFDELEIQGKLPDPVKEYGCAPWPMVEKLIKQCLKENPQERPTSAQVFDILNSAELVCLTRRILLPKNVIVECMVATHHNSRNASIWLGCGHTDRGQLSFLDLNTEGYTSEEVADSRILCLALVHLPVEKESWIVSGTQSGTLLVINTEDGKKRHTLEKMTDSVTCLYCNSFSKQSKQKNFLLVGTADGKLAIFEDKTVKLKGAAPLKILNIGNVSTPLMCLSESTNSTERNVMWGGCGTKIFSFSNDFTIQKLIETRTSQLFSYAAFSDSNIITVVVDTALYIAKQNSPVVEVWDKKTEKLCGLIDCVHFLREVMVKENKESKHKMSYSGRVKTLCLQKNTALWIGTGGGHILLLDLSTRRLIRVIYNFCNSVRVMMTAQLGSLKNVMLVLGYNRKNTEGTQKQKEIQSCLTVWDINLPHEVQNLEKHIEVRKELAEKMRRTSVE

Compound | IC50 [nM]
Cc1nn(C(C)(C)C#N)cc1Nc1ncc(C(F)(F)F)c([C@@H]2C[C@H]2F)n1 (single isomer, unassigned) [Compound A-12, 2-(4-((4-(2-fluorocyclopropyl)-5-(trifluoromethyl)pyrimidin-2-yl)amino)-3-methyl-1H-pyrazol-1-yl)-2-methylpropanenitrile] | > 60
Cc1nn(C(C)(C)C#N)cc1Nc1ncc(C(F)(F)F)c([C@H]2C[C@@H]2F)n1 (single isomer, unassigned) [Compound A-13, 2-(4-((4-(2-fluorocyclopropyl)-5-(trifluoromethyl)pyrimidin-2-yl)amino)-3-methyl-1H-pyrazol-1-yl)-2-methylpropanenitrile] | > 60
CC1(O)CCCC1n1ncc(Nc2ncc(C(F)(F)F)c(C3CC3)n2)c1Cl (single isomer, unassigned) [Compound A-49, 2-(5-chloro-4-((4-cyclopropyl-5-(trifluoromethyl)pyrimidin-2-yl)amino)-1H-pyrazol-1-yl)-1-methylcyclopentanol] | > 60
CC1(O)CCCC1n1ncc(Nc2ncc(C(F)(F)F)c(C3CC3)n2)c1Cl (single isomer, unassigned) [Compound A-50, 2-(5-chloro-4-((4-cyclopropyl-5-(trifluoromethyl)pyrimidin-2-yl)amino)-1H-pyrazol-1-yl)-1-methylcyclopentanol] | < 30
CCN1CC(n2ncc(Nc3ncc(C(F)(F)F)c(C4CC4)n3)c2C)CCC1=O (single isomer, unassigned) [Compound A-59] | < 30
CCN1CC(n2ncc(Nc3ncc(C(F)(F)F)c(C4CC4)n3)c2C)CCC1=O (single isomer, unassigned) [Compound A-60] | < 30
CCN1CC(n2cc(Nc3ncc(C(F)(F)F)c(C4CC4)n3)c(C)n2)CCC1=O (single isomer, unassigned) [Compound A-61] | 30 to 60
CCN1CC(n2cc(Nc3ncc(C(F)(F)F)c(C4CC4)n3)c(C)n2)CCC1=O (single isomer, unassigned) [Compound A-62] | > 60
Cc1nn(C(C)(C)C#N)cc1Nc1ncc(C(F)(F)F)c(C2CC2)n1 [Compound A-1, 2-[4-[(5-trifluoromethyl-4-cyclopropyl-pyrimidin-2-yl)amino]-3-methyl-pyrazol-1-yl]-2-methyl-propanenitrile] | < 30
Cc1nn(C(C)(C)C#N)cc1Nc1ncc(Cl)c(C2CC2)n1 [Compound A-2, 2-[4-[(5-chloro-4-cyclopropyl-pyrimidin-2-yl)amino]-3-methyl-pyrazol-1-yl]-2-methyl-propanenitrile] | < 30
Cc1nn(C(C)(C)C#N)cc1Nc1ncc(C#N)c(C2CC2)n1 [Compound A-3, 2-[[1-(1-cyano-1-methyl-ethyl)-3-methyl-pyrazol-4-yl]amino]-4-cyclopropyl-pyrimidine-5-carbonitrile] | > 60
Cc1nn(C(C)(C)C#N)cc1Nc1ncc(C(F)(F)F)c(C2=CCCC2)n1 [Compound A-4, 2-[4-[[4-(cyclopenten-1-yl)-5-(trifluoromethyl)pyrimidin-2-yl]amino]-3-methyl-pyrazol-1-yl]-2-methyl-propanenitrile] | 30 to 60
Cn1nc(C(C)(C)C#N)cc1Nc1ncc(C(F)(F)F)c(C2CC2)n1 [Compound A-5, 2-(5-((4-cyclopropyl-5-(trifluoromethyl)pyrimidin-2-yl)amino)-1-methyl-1H-pyrazol-3-yl)-2-methylpropanenitrile] | 30 to 60
Cc1nn(S(C)(=O)=O)cc1Nc1ncc(C(F)(F)F)c(C2CC2)n1 [Compound A-7, 4-cyclopropyl-N-(3-methyl-1-methylsulfonyl-pyrazol-4-yl)-5-(trifluoromethyl)pyrimidin-2-amine] | < 30
Cc1nn(C(C)(C)c2ncn(C)n2)cc1Nc1ncc(C(F)(F)F)c(C2CC2)n1 [Compound A-8, 4-cyclopropyl-N-(3-methyl-1-(2-(1-methyl-1H-1,2,4-triazol-3-yl)propan-2-yl)-1H-pyrazol-4-yl)-5-(trifluoromethyl)pyrimidin-2-amine] | < 30

The next lines start with the values.

IC50 [nM] | Compound
30 to 60 | FC(F)(F)c1cnc(Nc2cnn([C@H]3CN(C4COC4)CCC3(F)F)c2Cl)nc1C1CC1 (single isomer, unassigned) [Compound A-64, N-(5-chloro-1-(4,4-difluoro-1-(oxetan-3-yl)piperidin-3-yl)-1H-pyrazol-4-yl)-4-cyclopropyl-5-(trifluoromethyl)pyrimidin-2-amine]
< 30 | FC(F)(F)c1cnc(Nc2cnn([C@@H]3CN(C4COC4)CCC3(F)F)c2Cl)nc1C1CC1 (single isomer, unassigned) [Compound A-65, N-(5-chloro-1-(4,4-difluoro-1-(oxetan-3-yl)piperidin-3-yl)-1H-pyrazol-4-yl)-4-cyclopropyl-5-(trifluoromethyl)pyrimidin-2-amine]
> 60 | Cc1nn([C@@H]2CCn3ccnc32)cc1Nc1ncc(C(F)(F)F)c(C2CC2)n1 (single isomer, unassigned) [Compound A-78]
< 30 | Cc1nn([C@H]2CCn3ccnc32)cc1Nc1ncc(C(F)(F)F)c(C2CC2)n1 (single isomer, unassigned) [Compound A-79]
< 30 | Cc1nn([C@@H]2CCn3cnnc32)cc1Nc1ncc(C(F)(F)F)c(C2CC2)n1 (single isomer, unassigned) [Compound A-82]
< 30 | Cc1nn([C@H]2CCn3cnnc32)cc1Nc1ncc(C(F)(F)F)c(C2CC2)n1 (single isomer, unassigned) [Compound A-83]

Same assay, conditions: Table D-4; 5 nM LRRK2, 134 μM ATP, 60 minute reaction, 23° C.

IC50 [nM] | Compound
< 30 | CCNc1nc(Nc2cnn(C3CCn4ccnc43)c2C)ncc1C(F)(F)F (racemic) [Compound D-22, N2-(1-(6,7-dihydro-5H-pyrrolo[1,2-a]imidazol-7-yl)-5-methyl-1H-pyrazol-4-yl)-N4-ethyl-5-(trifluoromethyl)pyrimidine-2,4-diamine]
> 60 | CNc1nc(Nc2cn(C3CCn4ccnc43)nc2C)ncc1C(F)(F)F (single isomer, unassigned) [Compound D-3, N2-[1-[6,7-dihydro-5H-pyrrolo[1,2-a]imidazol-7-yl]-3-methyl-1H-pyrazol-4-yl]-N4-methyl-5-(trifluoromethyl)pyrimidine-2,4-diamine]
< 30 | CNc1nc(Nc2cn(C3CCn4ccnc43)nc2C)ncc1C(F)(F)F (single isomer, unassigned) [Compound D-4, N2-[1-[6,7-dihydro-5H-pyrrolo[1,2-a]imidazol-7-yl]-3-methyl-1H-pyrazol-4-yl]-N4-methyl-5-(trifluoromethyl)pyrimidine-2,4-diamine]
> 60 | CCNc1nc(Nc2cn(C3CCn4ccnc43)nc2C)ncc1C(F)(F)F (single isomer, unassigned) [Compound D-23, N2-(1-(6,7-dihydro-5H-pyrrolo[1,2-a]imidazol-7-yl)-3-methyl-1H-pyrazol-4-yl)-N4-ethyl-5-(trifluoromethyl)pyrimidine-2,4-diamine]
< 30 | CCNc1nc(Nc2cn(C3CCn4ccnc43)nc2C)ncc1C(F)(F)F (single isomer, unassigned) [Compound D-24, N2-(1-(6,7-dihydro-5H-pyrrolo[1,2-a]imidazol-7-yl)-3-methyl-1H-pyrazol-4-yl)-N4-ethyl-5-(trifluoromethyl)pyrimidine-2,4-diamine]
